These results are taken from patent publication US6727252B1, “Methods of modulating serine/threonine protein kinase function with 5-azaquinoxaline-based compounds” (Zentaris AG, priority 1997, dated 2004).

The test system of data set [1] is 3T3/H-Ras (NIH 3T3 clone 7 cells expressing genomic fragment of oncogenic H-Ras). Put plainly: Growth of NIH 3T3 cells over expressing H-Ras (SRB). The conditions noted are these: Mus musculus, NIH3T3, 72 h; cell growth, 2% calf serum/DMEM, 3 days with compound. It is filed as cell-based. The method, then:
The following assay measures growth rates for NIH-3T3 cells expressing RAS. The purpose of the assay is to determine the effects of compounds on the growth of NIH 3T3 cells over expressing H-Ras.
3T3/H-Ras (NIH 3T3 clone 7 cells expressing genomic fragment of oncogenic H-Ras).
2% calf serum/DMEM+2 mM glutamine, Pen/Strep
(§1) 1. Trypsinize cells. Transfer […] of cell suspension to 10 mL of isotone. Count cells with a Coulter Counter.
2. Dilute cells in growth medium to 60,000 cell/mL. Transfer 100 µL of cells to each well in a 96-well flat bottom plate to give 6000 cells/well.
3. Use half of plate (4 rows) for each comound and quadruplicate wells for each comound concentration, and a set of 4 wells for medium control.
(§2) 4. Gently shake plates to allow for uniform attachment of the cells.
(§3) 5. Incubate the plates at 37 C in a 10% CO2 incubator.
1. In a 96-well round bottom plate, add 120 µL of growth medium containing 2×final % DMSO found in highest screening concentration of compound to columns 1 to 11. For example, if the highest concentration is […], and this is made from a 100 mM stock, 1×DMSO is 0.1%, so 2×DMSO is 0.2%. This plate is used to titrate out the compound, 4 rows per compound.
2. In a sterile 15 mL tube, make a 2×solution of the highest screening concentration of compound in growth medium plus 2×DMSO. 1 mL per cell line is needed. The starting concentration of the compound is usually 100 µM but this concentration may vary depending upon the solubility of the compound.
3. Transfer 240 µL of the 2×starting compound solution to qudruplicate wells in column 12 of the 96-well round bottom plate. Do 1:2 serial dilutions across the plate from right to left by transferring […] from column 12 to column 11, column 11 to 10 and so on through column 2. Transfer 100 µL of compound dilutions, and 100 µL of medium in column 1, onto […] medium on cells in corresponding wells of 96-well flat bottom plate. Total volume per well should be […].
4. Return the plate to the incubattor and incubate for 3 days.
(§4) 1. Aspirate or pour off medium. Add […] cold 10% TCA to each well to fix cells. Incubate plate for at least 60 min. at 4 C.
(§5) 2. Discard TCA and rinse wells 5 times with tap water. Dry plates upside down on paper towels.
(§6) 3. Stain cells with 100 µL/well 0.4% SRB for 10 min.
4. Pour of SRB and rinse wells 5 times with 1% acetic acid. Dry plates completely upside down on paper towels.
(§7) 5. Solubilize dye with 100 µL/well 10 mM Tris base for 5-10 min. on shaker.
6. Read plates on Dynatech ELISA Plate REader at 570 nm with reference at 630 nm.

The subject of data set [2] is A549 human lung carcinoma cells. The data set can be described thus: Growth of A549 cells (SRB). The settings on record: cell growth. The class given is cell-based. On the procedure: The following assay measures growth rates for A549 cells. The purpose of the assay is to determine the effects of compounds on the growth of A549 human lung carcinoma cells. A549 cells are readily accessible from commercial sources, such as ATCC (CCL185). […]
as §1
2. Dilute cells in growth medium to 20,000 cell/mL. Transfer 100 µL of cells to each well in a 96-well flat bottom plate to give 2000 cells/well.
3. Use half of plate (4 rows) for each compound and quadruplicate wells for each compound concentration, and a set of 4 wells for medium control.
as §2, §3
1. In a 96 well-round bottom plate, add 120 µL of growth medium containing 2×final %DMSO found in highest screening concentration of compound to columns 1 to 11. For example, if the highest screening concentration is 100 µM, and this is made from a 100 mM stock, 1×DMSO is 0.1%, so 2×DMSO is 0.2%. This plate is used to titrate out the compound, 4 rows per compound.
2. In a sterile 15 mL tube, make a 2×solution of the highest screening concentration of compound in growth medium plus. 2×DMSO. 1 mL per cell line is needed. The starting concentration of the compound is usually 100 µM but this concentration may vary depending upon the solubility of the compound.
3. Transfer 240 µL of the 2×starting compound solution to quadruplicate wells in column 12 of the 96-well round bottom plate. Do 1:2 serial dilutions across the plate from right to left by transferring […] from column 12 to column 11, column 11 to 10 and so on through column
2. Transfer 100 µL of compound dilutions, and 100 µL of medium in column 1, onto […] medium on cells in corresponding wells of 96-well flat bottom plate. Total volume per well should be 200 L.
4. Return the plate to the incubator and incubate for 3 days.
as §4, §5, §6
4. Pour off SRB and rinse wells 5 times with 1% acetic acid. Dry plates completely upside down on paper towels.
as §7
6. Read plates on Dynatech ELISA Plate Reader at 570 nm with reference at 630 nm.

[3] abbreviates: 2% FBS, read-out: IC50 (M) A549 (2% FBS).
Where [4] appears, read: growth medium 10% fetal calf serum in Ham's F12-K, read-out: IC50 (M) A549.

Read-outs that look alike come from different tables or passages of the source.

Turning to `Oc1ccc(-c2cnc3ccc(Nc4ccccc4Cl)nc3n2)cc1` [Compound A-36, 6-(2-Chlorophenylamino)3-(4-hydroxyphenyl)-5-azaquinoxaline], the IC50 in data set [1] came out at 0.18 µM.

As to `Clc1ccccc1Nc1ccc2ncc(-c3ccccc3)nc2n1` [Compound A-77, 6-(2-Chlorophenylamino)-3-phenyl-5-azaquinoxaline], in data set [1], the IC50 was determined as 0.7 µM.

For `Oc1ccc(-c2cnc3ccc(NCc4ccccc4)nc3n2)cc1` [Compound A-2, 6-Benzylamino-3-(4-hydroxyphenyl)-5-Azaquinoxaline], the melting point is 271 to 273 °C. For the same compound, in data set [1], the IC50 was 7.6 µM. Also, the IC50 in data set [2] (setting [3]) was over 1e-05 M. Moreover, the IC50 in data set [2] (setting [4]) was 2.51e-05 M.

On to `Fc1ccc(CNc2ccc3nc(-c4ccccc4)c(-c4ccccc4)nc3n2)cc1` [Compound A-6, 2,3-Diphenyl-6-(4-fluorobenzylamino)-5-azaquinoxaline], for which the values for the IC50 in data set [1], in data set [2] (setting [3]) and in data set [2] (setting [4]) were 13.5 µM, over 1e-05 M and 2.38e-05 M, respectively.

With `Oc1ccc(-c2cnc3ccc(Nc4ccccc4)nc3n2)cc1` [Compound A-1, 6-Phenylamino-3-(4-hydroxyphenyl)-5-azaquinoxaline], the IC50 in data set [1] turned out to be 1.04 µM.
